Patent US8841281B2, “Transition metal complexes of amino acids and related ligands and their use as catalysts, anti-microbials, and anti-cancer agents” (Virginia Tech Intellectual Properties, Inc., priority 2011, dated 2014)
Where two headings read alike, the source gives them in different places.

Columns and labels:
[1] = system: methicillin-resistant Staphylococcus aureus (MRSA); assay: 96 well plate dilution test, MIC against MRSA; format: cell-based; settings: Pd(AA)2 complexes against MRSA
Procedure: Biological activities of complexes of Formula 1 were tested against various strains of bacteria using the following general procedure. It is noted that complexes of Formula 2 and Formula 3 were tested using the same procedure. Generally, 96 well plate dilution tests were performed using a 96-well plate consisting of 8 rows and 12 columns. Each well is charged with the test organism in the appropriate growth medium. The test complex is also dissolved in the test medium and the first well is charged with sufficient complex solution to provide a concentration of 250 ug/mL. […] Well 12 is used as a control with no test complex. The plates are incubated for 48 hrs in the case of bacteria and 4-5 days in the case of mycobacteria. The wells are read using a spectrophotometer measuring turbidity at 540 nm. A high optical density indicates significant cell growth while a low optical density indicates significant inhibition. All results reported are normalized in terms of inhibition of cell growth and reported as MICs.
Biological activity is expressed in terms of the Minimum Inhibitory Concentration (MIC) in units of micrograms per mL. The MIC is the lowest concentration of the complex at which full inhibition of organism growth is observed.
Octahedral iridium(III) complexes of Formula 2 were tested against various strains of bacteria using the procedure described above for Formula 1. Biological activity is expressed in terms of the MIC in units of micrograms per mL.

[2] = system: mycobacteria, Staphylococcus aureus and methicillin-resistant S. aureus (MRSA); settings: among Ir, Ru, Rh L-α-amino acid complexes
[3] = system: Mycobacterium marinum ATCC 927
[4] = system: Mycobacterium chelonae strain EO-P-1
M. chelonae = assay: 96 well plate dilution test, MIC against M. chelonae; format: cell-based
[5] = system: Mycobacterium intracellulare
M. abscessus = assay: 96 well plate dilution test, MIC against M. abscessus; format: cell-based
[6] = system: Mycobacterium bovis strain BCG; format: cell-based
[7] = system: Mycobacterium abscessus strain AAy-P-1
[8] = system: Mycobacterium smegmatis strain mc^2155; format: cell-based
[9] = system: Mycobacterium avium strain A5
M. smegmatis = assay: 96 well plate dilution test, MIC against M. smegmatis; format: cell-based
E. coli = assay: MIC of complexes against E. coli; format: cell-based
MRSA = assay: Activity against MRSA strains (Table VIIIB, compounds used alone); format: cell-based, Staphylococcus aureus; settings: for activity against MRSA when used alone: ligand compound used alone, not complexed
S. Aur = assay: Activity against S. Aur (Table VIIIB); format: cell-based, Staphylococcus aureus
[10] = Ruthenium piano stool complexes

Compound | Minimal Inhibitory Concentration (MIC) M. marinum [3] [µg/mL] | Minimal Inhibitory Concentration (MIC) M. chelonae [4] [µg/mL] | Minimal Inhibitory Concentration (MIC) M. intracellulare [5] [µg/mL] | Minimal Inhibitory Concentration (MIC) M. abscessus [7] [µg/mL] | Minimal Inhibitory Concentration (MIC) M. smegmatis [8] [µg/mL] | Minimal Inhibitory Concentration (MIC) M. avium [9] [µg/mL] | other results
NC(CO)C(=O)[O-].NC(CO)C(=O)[O-].[Pd+2] (stereo not drawn) [Pd(Ser)2] |  |  |  |  |  |  | MIC [1]: inactive
Cp*IrCl (L-Phenylalanine) [1 (L-phe)] |  |  |  |  |  |  | relative anti-mycobacterial / antibiotic activity [2]: highest activity
Cp*IrCl (L-Alanine) [1 (L-ala)] | >250 | 61 | 61 | 31 | 15 | >250 | M. chelonae MIC (M. chelonae): 7.5 µg/mL; M. abscessus MIC (M. abscessus; Iridium piano stool complexes): 7.5 µg/mL; Minimal Inhibitory Concentration (MIC) M. bovis [6]: 31 µg/mL; M. smegmatis MIC (M. smegmatis; Iridium piano stool complexes): 7.5 µg/mL
C1=CCCC=CCC1.C[P](C)(C)[Ir+]([P](C)(C)C)[P](C)(C)C.[Cl-] [Ir(COD)(PMe3)3] |  |  |  |  |  |  | MIC ug/mL E. coli (E. coli): 60 µg/mL
[Ir(COD)(N-methylethylenediamine)]Cl [3 (N-methyl en)] | >250 | >250 | >250 | >250 | >250 | >250 | MIC (gram positive MRSA): 16.2 µg/mL; Minimal Inhibitory Concentration (MIC) M. bovis [6]: >250 µg/mL
O=C([O][Pd][O]C(=O)C1CCCN1)C1CCCN1 (stereo not drawn) [Pd(Pro)2, bis-prolinato palladium(II)] |  |  |  |  |  |  | MIC [1]: 7.5 µg/mL
CC(C)CC(N)C(=O)[O-].Cc1ccc(C(C)C)cc1.[Cl-].[Ru+2] [Ru(p-cymene)leu] |  |  |  |  |  |  | M. chelonae MIC (M. chelonae; [10]): 7.5 µg/mL; M. abscessus MIC (M. abscessus; [10]): 7.5 µg/mL; M. smegmatis MIC (M. smegmatis; [10]): 3.9 µg/mL
Cp*IrCl (Glycine) [1 (L-gly)] | >250 | 125 | >250 | 125 | 61 | >250 | 
Cp*IrCl (L-Valine) [1 (L-val)] | >250 | 31 | >250 | 61 | 17 | >250 | M. chelonae MIC (M. chelonae): 7.5 µg/mL; M. abscessus MIC (M. abscessus; Iridium piano stool complexes): 7.5 µg/mL; Minimal Inhibitory Concentration (MIC) M. bovis [6]: 31 µg/mL; M. smegmatis MIC (M. smegmatis; Iridium piano stool complexes): 3.9 µg/mL
CN(C)CCN [N,N-dimethylethylenediamine, reference compound] |  |  |  |  |  |  | activity against MRSA when used alone (MRSA): not active
Cp*IrCl (L-Proline) [1 (L-pro)] | >250 | 15 | 61 | 15 | 10 | 125 | M. chelonae MIC (M. chelonae): 7.5 µg/mL; M. abscessus MIC (M. abscessus; Iridium piano stool complexes): 3.9 µg/mL; Minimal Inhibitory Concentration (MIC) M. bovis [6]: 15 µg/mL; relative anti-mycobacterial / antibiotic activity [2]: highest activity; M. smegmatis MIC (M. smegmatis; Iridium piano stool complexes): 3.9 µg/mL
[Ir(COD)(ethambutol)]Cl [3 (EMB)] | >250 | 61 | >250 | 61 | 61 | >250 | MIC (gram positive MRSA; gram positive MRSA): 8.1 µg/mL
[Ir(COD)(N,N-dimethylethylenediamine)]Cl [3 (N,N-methyl en)] | >250 | >250 | >250 | >250 | >250 | >250 | MIC (gram positive MRSA): >250 µg/mL; Minimal Inhibitory Concentration (MIC) M. bovis [6]: >250 µg/mL
CC[C@@H](CO)NCCN[C@@H](CC)CO [ethambutol, reference compound] |  |  |  |  |  |  | activity against MRSA when used alone (MRSA): not active
Napthalenediamine [reference compound] |  |  |  |  |  |  | activity against MRSA when used alone (MRSA): active
Cp*IrCl (L-Leucine) [1 (L-leu)] | >250 | 32 | 32 | 32 | 32 | >250 | M. chelonae MIC (M. chelonae): 3.9 µg/mL; M. smegmatis MIC (M. smegmatis; Iridium piano stool complexes): 3.9 µg/mL
[Ir(COD)(ethylenediamine)]Cl [3 (en)] | >251 | 61 | 61 | 61 | 125 | >250 | MIC (gram positive MRSA; gram positive MRSA): 8.1 µg/mL
Cc1c(C)c(C)[c-](C)c1C.NC(Cc1ccc(O)cc1)C(=O)[O-].[Cl-].[Ir+3] [Ir(Cp*)L-Tyr] |  |  |  |  |  |  | M. chelonae MIC (M. chelonae; Iridium piano stool complexes): Inactive
Cp*IrCl (L-Serine) [1 (L-ser)] |  |  |  |  | >250 | >250 | M. chelonae MIC (M. chelonae): Inactive
Cp*IrCl (N-methyl-Glycine) [1 (L-N-methylgly)] |  |  |  |  | >250 | >250 | 
Cp*IrCl (L-Phenylglycine) [1 (L-phengly)] | >250 | 10 | 15 | 31 | 5 | >250 | Minimal Inhibitory Concentration (MIC) M. bovis [6]: 10 µg/mL; relative anti-mycobacterial / antibiotic activity [2]: highest activity
CC(C)C(N)C(=O)[O-].Cc1ccc(C(C)C)cc1.[Cl-].[Ru+2] [Ru(p-cymene)Val] |  |  |  |  |  |  | M. chelonae MIC (M. chelonae; [10]): 7.5 µg/mL; M. abscessus MIC (M. abscessus; [10]): 7.5 µg/mL; M. smegmatis MIC (M. smegmatis; [10]): 7.5 µg/mL
CC(N)C(=O)[O][Ru][Cl].Cc1ccc(C(C)C)cc1 [Ru(p-cymene)ala] |  |  |  |  |  |  | M. chelonae MIC (M. chelonae; [10]): 7.5 µg/mL; M. abscessus MIC (M. abscessus; [10]): 7.5 µg/mL; M. smegmatis MIC (M. smegmatis; [10]): 7.5 µg/mL
Cp*IrCl (L-Trans-4-Hydroxyproline) [1 (L-hyp)] |  |  |  |  | >250 | >250 | 
NCCN [ethylenediamine, reference compound] |  |  |  |  |  |  | activity against MRSA when used alone (MRSA): not active
CN(C)CCN [4 (N,N-dimethyl ethylenediamine)] |  |  |  |  |  |  | Activity (MIC) S. Aur (S. Aur): >250 µg/mL; Activity (MIC) MRSA PI-1 (MRSA; strain PI-1): >250 µg/mL; Activity (MIC) MRSA PI-34380 (MRSA; strain PI-34380): >250 µg/mL; Activity (MIC) MRSA PI-34864 (MRSA; strain PI-34864): >250 µg/mL; Activity (MIC) MRSA PI-36361 (MRSA; strain PI-36361): >250 µg/mL; Activity (MIC) MRSA PI-43300 (MRSA; strain PI-43300): >250 µg/mL; Activity (MIC) MRSA PI-52300 (MRSA; strain PI-52300): >250 µg/mL; Activity (MIC) MRSA PI-53016 (MRSA; strain PI-53016): >250 µg/mL
CC(N)C(=O)[O-].CC(N)C(=O)[O-].[Pd+2] (stereo not drawn) [Pd(Ala)2] |  |  |  |  |  |  | MIC [1]: inactive
CNCCN [N-methylethylenediamine, reference compound] |  |  |  |  |  |  | activity against MRSA when used alone (MRSA): not active
Cp*IrCl (D-Proline) [1 (D-pro)] | >250 | >250 | >250 | >250 | >250 | >250 | Minimal Inhibitory Concentration (MIC) M. bovis [6]: >250 µg/mL
palladium(II) bis-valine [Pd(Val)2] |  |  |  |  |  |  | MIC [1]: 9.0 µg/mL
